Assay results from BindingDB's records for PubMed 35598527 (Universidade Federal De Minas Gerais, 2022).

Test: Antagonist activity at pig cerebral cortex CCK2 […] by Packbard-Cobra counter analysis

CC(C)CNC1=C(Cl)C(=O)OC1OCc1ccccc1 (configuration not stated)
IC50: 85 nM

C#CCOC1OC(=O)C(Cl)=C1N(CC(C)C)C1CCCCC1 (configuration not stated)
IC50: 80 nM
